{"source": "patent US20240408112A1", "about": "“METHOD FOR PREVENTING OR TREATING PULMONARY ARTERIAL HYPERTENSION BY USING 7-DEHYDROCHOLESTEROLS OR SALTS, OXIDES, METABOLITES, OR DERIVATIVES THEREOF” (EXCELSIOR PHARMATECH LABS., priority 2023, published 2024)", "key": {"[1]": {"test_system": "human pulmonary artery endothelial cells (hPAEC)", "assay": "BrdU cell proliferation assay, 10% FBS, hPAEC", "assay_type": "cell-based", "experimental": "(§1) BrdU (5-bromo-2-deoxyuridine) cell proliferation assay (BrdU assay)\n(§2) A 48-well plate was used, and 1.5×10^4 cells were implanted in each well. After 24 hours, the medium was changed to serum-free culture medium and synchronized for 24 hours. A 2-fold concentration of the compound in serum-free culture medium is prepared and the cells were pretreated for 1 hour. Then, the same volume of culture medium containing 20% fetal bovine serum (FBS) was added to dilute the compound. The final concentration was 10% FBS culture medium and 1 times the concentration of the compound. In the experimental group that added TGF-β, the same volume of TGF-β culture medium containing 10 ng/mL was added, with a final concentration of 5 ng/mL TGF-β and 1 times the concentration of the compound, and in the experimental group added with TGF-β, the entire process was conducted in culture medium containing 0.1% serum. Then, BrdU reagent was added about 6 hours later, and the cells were collected the next day for enzyme-linked immunosorbent assay (ELISA) analysis, the compound treatment time was about 24 hours, and the BrdU treatment time was about 18 hours.\n(§3) Five compounds to be tested were screened by cell survival assay (MTT assay) and BrdU (5-bromo-2-deoxyuridine) cell proliferation assay, and the information of these compounds was listed in Table 1 below. Tables 2 and 3 respectively listed the growth inhibitions of on human pulmonary artery endothelial cells (hPAEC), human pulmonary artery smooth muscle cells (hPASMC), normal rat pulmonary artery smooth muscle cells (rPASMC, as the control group, represented by “CON”), and rat pulmonary artery smooth muscle cells (represented by “MCT”), by the five compounds to be tested under the conditions of 10% FBS, 0.1% FBS and 100 pM TGF-β."}, "[2]": {"test_system": "human pulmonary artery smooth muscle cells (hPASMC)", "assay": "BrdU cell proliferation assay, 0.1% FBS, 100 pM TGF-β, hPASMC", "assay_type": "cell-based", "conditions": "hPASMC, 100 pM TGF-β, 0.1% FBS", "experimental": "as §1, §2, §3"}, "[3]": {"test_system": "human pulmonary artery smooth muscle cells (hPASMC)", "assay": "BrdU cell proliferation assay, 10% FBS, hPASMC", "assay_type": "cell-based", "experimental": "as §1, §2, §3"}, "[4]": {"test_system": "normal rat pulmonary artery smooth muscle cells (rPASMC CON)", "assay": "BrdU cell proliferation assay, 10% FBS, rPASMC CON", "assay_type": "cell-based", "experimental": "as §1, §2, §3"}, "[5]": {"test_system": "PAH rat pulmonary artery smooth muscle cells (rPASMC MCT)", "assay": "BrdU cell proliferation assay, 10% FBS, rPASMC MCT", "assay_type": "cell-based", "experimental": "as §1, §2, §3"}, "[6]": {"test_system": "monocrotaline induced pulmonary hypertension rat", "assay": "Monocrotaline-induced pulmonary arterial hypertension rat model, Example 2 (7-DHC, 042)", "assay_type": "in vivo", "conditions": "for Arterial gas analysis pH value, PaO2 and PaCO2, in words: between groups CON, MCT and treated; for Base excess (BE) value: MCT group −5.5, normal −2 to +2", "excerpt": "Pulmonary arterial hypertension animal experimental model\nThe present disclosure utilizes injection of monocrotaline to induce symptoms of pulmonary arterial hypertension in rats to establish a pulmonary arterial hypertension animal experimental model suitable for screening test drugs.\nThe diagnostic method of clinical pulmonary arterial hypertension standards is right heart catheterization, which is defined as mean pulmonary arterial pressure (mPAP) greater than or equal to 20 mmHg. The diagnostic criteria for pulmonary arterial hypertension, in addition to an increase in mean pulmonary arterial pressure, need to be combined with pulmonary vascular resistance (PVR) greater than 3 Wood unit. The right ventricle pressure (RVP) and systemic mean blood pressure (mbp) in rats with pulmonary arterial hypertension were measured by Millar Model PCU200 pressure system, and the heart rate (HR) was also monitored at the same time. After measuring the hemodynamic data, the arterial blood was extracted from the carotid artery of the pulmonary arterial hypertension rat, and the Abbott blood oximeter (i-STAT) combined with Abbott's special chip cartridge (i-STAT Cartridge G3+) was used to measure arterial gas analysis data such as pH, PaO2, PaCO2, HCO3 and base excess (BE) value in quantitative whole blood samples. The normal pH value is between 7.35 and 7.45, and the pH value indicates whether the experimental animal has the condition of acidemia, alkalemia, acidosis or alkalosis. The normal value of PaO2 is between 80 and 100 mmHg, which reflects the effectiveness of gas exchange (ventilation/perfusion). The normal value of PaCO2 is between 35 and 45 (such as 38 and 42) mmHg, which can evaluate the effectiveness of alveolar ventilation. The acid produced by food, tissue decomposition, inflammation and hypoxia rely on the lungs to excrete volatile acid CO2 (short-term) and the bicarbonate (HCO3^−) produced by the kidneys (long-term) to neutralize non-volatile acids, while the normal value of bicarbonate hydrogen radical (HCO3^−) is between 22 and 26 meq/L. BE is the base excess value, its normal value ranges from −2 to +2, the negative value represents the degree of alkali ion deficiency in the blood, a negative BE value (−) that is too high indicates metabolic acidosis, and a positive value (+) that is too high is metabolic alkalosis. At the end of the experiment, the rats were sacrificed and their hearts were removed and the left and right ventricles were separated and weighed (RV)/(S)+(LV).\nMonocrotaline (MCT) was utilized to induce pulmonary hypertension rat animal model, the TGF-β receptor inhibitor 7-DHC (039) and compound No. 042 were tested via intraperitoneal (IP) administration, and the physiological parameters of the animals were collected, wherein includes measuring right ventricle pressure, systemic arterial pressure, heartbeat and right ventricle hypertrophy, as well as observing and analyzing the pulmonary artery thickening and blood oxygenation levels through pathological sections of lung tissue. Specifically, 7-DHC (039) was divided into two groups with a dosage of 10 mg/kg or 20 mg/kg, the dosage of group 042 was 50 mg/kg, each dosage group has 3 rats (n=3), while the control group (CON) and the pulmonary arterial hypertension rat group (MCT) had 6 rats (n=6) respectively."}, "[7]": {"conditions": "Rattus norvegicus, read-out: EC50 (concentration for 50% of maximal effect)"}}, "data": [{"compound": "CC(C)CCCC(C)C1CCC2C3=CC=C4CC(O)CCC4(C)C3CCC21C", "note": "(stereo not drawn) [Code 039, 7-DHC]", "values": [{"measurement": "EC50", "setting": "[1]; Homo sapiens, Endothelial cell, read-out: EC50 (concentration for 50% of maximal effect)", "result": 47, "unit": "µM"}, {"measurement": "Inhibition of cell growth (in words)", "setting": "[1]; hPAEC, 10% FBS, FIG. 2", "result": "inhibition of cell growth can also be observed"}, {"measurement": "EC50", "setting": "[2]; Homo sapiens, read-out: EC50", "result": 24, "unit": "µM"}, {"measurement": "Inhibition of cell growth (in words)", "setting": "[2]; 25 μM, FIG. 3", "result": "inhibition of cell growth"}, {"measurement": "EC50", "setting": "[3]; Homo sapiens, read-out: EC50 (concentration for 50% of maximal effect)", "result": 53, "unit": "µM"}, {"measurement": "Inhibition of cell growth (in words)", "setting": "[3]; hPASMC, 10% FBS, FIG. 2", "result": "inhibition of cell growth can also be observed"}, {"measurement": "EC50", "setting": "[4]; [7]", "result": 38, "unit": "µM"}, {"measurement": "Inhibition of cell growth (in words)", "setting": "[4]; rPASMC CON1, 10% FBS, FIG. 2", "result": "significant inhibitory effects"}, {"measurement": "EC50", "setting": "[5]; [7]", "result": 37, "unit": "µM"}, {"measurement": "Inhibition of cell growth (in words)", "setting": "[5]; rPASMC MCT4, 10% FBS, FIG. 2", "result": "significant inhibitory effects"}, {"measurement": "Arterial gas analysis pH value, PaO2 and PaCO2, in words", "setting": "[6]; 10 mg/kg IP", "result": "did not show any significant differences"}, {"measurement": "Thickness of the pulmonary artery blood vessels (medial wall thickness), in words", "setting": "[6]; 10 mg/kg IP, p<0.001, vs MCT rats (exceeded 55%)", "result": "significantly reduced"}, {"measurement": "Base excess (BE) value", "setting": "[6]; 10 mg/kg IP", "result": "−2"}, {"measurement": "Animal survival status", "setting": "[6]; 20 mg/kg IP, 23rd day after monocrotaline induction", "result": "had died"}, {"measurement": "Arterial gas analysis pH value, PaO2 and PaCO2, in words", "setting": "[6]; 20 mg/kg IP", "result": "did not show any significant differences"}, {"measurement": "Base excess (BE) value", "setting": "[6]; 20 mg/kg IP", "result": 0}, {"measurement": "Systemic blood pressure and heartbeat, in words", "setting": "[6]; 10 or 20 mg/kg IP", "result": "did not reduce"}, {"measurement": "Right ventricle pressure (RVP), in words", "setting": "[6]; 10 or 20 mg/kg IP, vs MCT rats (28 mmHg)", "result": "can be reduced"}]}]}
